We go through two molecules from article PMC9120013, “Ribosome inhibition by C9ORF72-ALS/FTD-associated poly-PR and poly-GR proteins revealed by cryo-EM” (Nature Communications, 2022).

Ends that are not written are not given here.

For experiment [1], the system named is E. coli 70S ribosomes. The experiment can be described thus: Kinetic peptidyl transfer (puromycin) assay on E. coli 70S ribosomes. Type of experiment: biochemical. As to conditions: 30 nM 70S, 50 µM puromycin, 37 °C; n = 2; read-out: apparent inhibition constant (Ki) of peptidyl transfer. On the procedure: The effects of GRn or PRn on peptide bond formation in E. coli ribosome were tested in an in vitro assay that reacts the 70S ribosome loaded with [^35S]-fMet-tRNA^fMet in the P-site with puromycin, an A-site tRNA mimic, and measures the release of the resulting dipeptide containing formyl-methionine covalently bonded to puromycin, as described. E. coli tRNA^fMet (Chemical Block) was aminoacylated with [^35S]-N-formyl-L-methionine (Perkin Elmer) as described. 70S ribosomes were prepared from E. coli (MRE600) as described. 70S ribosomes were stored in the ribosome-storage buffer (20 mM Tris-HCl, pH 7.0; 100 mM NH4Cl; 20 mM MgCl2) at –80 °C. A model mRNA fragment, containing the Shine-Dalgarno sequence and a spacer to position the AUG codon in the P-site and the UUC codon in the A site (GGCAAGGAGGUAAAAAUGUUC AAAAAA), was synthesized by IDT. 70S•mRNA•fMet-tRNA^fMet complexes with GRn (where n = 4, 10 or 20) or PRn (where n = 4, 10, 20 or 40) were formed as follows. 330 nM 70S ribosomes were incubated with 11 µM mRNA in buffer containing 20 mM Tris-acetate (pH 7.0), 100 mM NH4OAc, 12 mM Mg(OAc)2, for 2 min at 37 °C. 730 nM [^35S]-fMet-tRNA^fMet was added and incubated for 5 min at 37 °C. The solution was diluted 9.6-fold with the same buffer, followed by addition of a GRn or PRn repeat peptide (22x relative to its final concentration). The complex was incubated for 5 min at 37 °C prior to addition of puromycin dissolved in the same buffer (see below).
The kinetics of puromycin reaction on the 70S or 80S ribosomes were recorded and analyzed essentially as described. An aliquot (4.5 μl) of the complex prior to addition of puromycin was quenched in 30 μl of saturated MgSO4 in 0.1 M NaOAc to represent the zero-time point. Five microliters of 500 µM puromycin (in the same buffer as that used for the ribosomal complex) was added to 45 μl of the complex to initiate the reaction, yielding estimated final concentrations: 30 nM for the ribosome, 1 µM mRNA, 66 nM [^35S]-fMet-tRNA^fMet, 50 µM puromycin, and varying concentrations of PRn and GRn peptides, from 30 nM to 2 μM. After 6, 15, 30, 90 s, and 5, 15, 30, 60, and (for slower reactions) 180 min, 5-μl aliquots were quenched in 30 μl of saturated MgSO4 in 0.1 M NaOAc. All quenched samples were extracted with 700 μl ethyl-acetate. 600 μl of the extract were mixed with 3.5 ml of Econo-Safe scintillation cocktail (RPI), and the amount of released [^35S]-labeled dipeptide was measured for each time point using a scintillation counter (Beckman Coulter, Inc.).
All time progress curves were recorded in duplicates, using independently prepared 70S or 80S complexes. Reaction rates were calculated using single-exponential or double-exponential (80S complexes) regressions for different concentrations of PRn and GRn using GraphPad Prism 8. Hyperbola fitting in Gnuplot was used to derive apparent Ki-values.

Experiment [2] has as its system E. coli 70S ribosomes. The experiment can be described thus: Erythromycin competition in the puromycin assay on 70S ribosomes. It counts as biochemical. The following applies: 20 μM erythromycin and/or 2 μM PR20, 30 nM 70S, quenched at 300 s. On the procedure:
The assay was performed as described above for the puromycin kinetics, except that the 70S ribosomes were pre-incubated with 22 μM erythromycin for 5 min prior to adding PR20. The stock solution of erythromycin contained 2 mM erythromycin in ethanol, so the control reaction (70S with no erythromycin) and the reactions with erythromycin were prepared to contain the same amount of ethanol (1%). The final concentrations after addition of puromycin were: 30 nM 70S, 66 nM [^35S]-fMet-tRNA^fMet, 1 μM mRNA, 2 μM PR20 (no PR20 in the control reaction), 20 μM erythromycin (or no erythromycin in a control reaction), 50 µM puromycin (in 20 mM Tris-acetate (pH 7.0), 100 mM NH4OAc, 12 mM Mg(OAc)2 and 1% ethanol). Samples were quenched at 300 s when the uninhibited reaction had reached a plateau.

For `N=C(N)NCCC[C@H](NC(=O)CNC(=O)[C@H](CCCNC(=N)N)NC(=O)CNC(=O)[C@H](CCCNC(=N)N)NC(=O)CNC(=O)[C@H](CCCNC(=N)N)NC(=O)CNC(=O)[C@H](CCCNC(=N)N)NC(=O)CNC(=O)[C@H](CCCNC(=N)N)NC(=O)CNC(=O)[C@H](CCCNC(=N)N)NC(=O)CNC(=O)[C@H](CCCNC(=N)N)NC(=O)CNC(=O)[C@H](CCCNC(=N)N)NC(=O)CNC(=O)[C@H](CCCNC(=N)N)NC(=O)CNC(=O)[C@H](CCCNC(=N)N)NC(=O)CNC(=O)[C@H](CCCNC(=N)N)NC(=O)CNC(=O)[C@H](CCCNC(=N)N)NC(=O)CNC(=O)[C@H](CCCNC(=N)N)NC(=O)CNC(=O)[C@H](CCCNC(=N)N)NC(=O)CNC(=O)[C@H](CCCNC(=N)N)NC(=O)CNC(=O)[C@H](CCCNC(=N)N)NC(=O)CNC(=O)[C@H](CCCNC(=N)N)NC(=O)CNC(=O)[C@H](CCCNC(=N)N)NC(=O)CNC(=O)[C@H](CCCNC(=N)N)NC(=O)CN)C(=O)O` [GR20], the Ki with E. coli 70S ribosomes [1] was 164 ± 31 nM.
Regarding “PRPRPRPRPRPRPRPRPRPRPRPRPRPRPRPRPRPRPRPR [PR20]”, in the experiment on E. coli 70S ribosomes [1], the Ki was determined as 44 ± 9 nM. In addition, the results for the fMet-puromycin formed in the experiment on E. coli 70S ribosomes [2] (first column (replicate 1)) and with E. coli 70S ribosomes [2] (second column (replicate 2)) were 254 and 277, respectively.
